Patent US10945972B2, “Particulate materials” (Nektar Therapeutics, priority 2002, dated 2021)

What was measured:
Assay type in all cases: physicochemical
[1] = Particle size by Helos/Rodos laser diffraction (Example 1); settings: geometric projection-equivalent volume mean diameter
Procedure: (§1) PSD measurements were performed using firstly, AEROSIZER® time-of-flight instrument equipped with AERO-[…]® (TSI Inc., Minneapolis. USA) and secondly, laser diffraction sensor Helos with dry-powder air-dispersion system Rodos (Sympatec GmbH. Germany). The volume mean particle diameter, VMD, was obtained for both instruments using software options. In the general case of non-spherical particles, these instruments cannot provide the exact value of VMD, however, the time-of-flight technique gives an aerodynamic-equivalent particle diameter, whereas the laser diffraction method provides the geometric projection-equivalent diameter. These diameters afford the complementary information on PSD and therefore can be used for comparative size analysis.

[2] = Particle size by AeroSizer time-of-flight (Example 1); settings: aerodynamic-equivalent volume mean diameter
Procedure: as §1

[3] = Differential scanning calorimetry (Example 8); settings: DSC, 10° C. min^−1
Procedure: Prior to sample analysis, a baseline was obtained which was used as a background. […] Temperature and enthalpy were calibrated with the standard materials indium (melting point=156.6° C.) and zinc (melting point=419.5° C.). Samples (1-10) were accurately weighed into pierced, crimped aluminium pans and heated at 10° C. min^−1 over a heating range of 25-290° C. under a nitrogen purge. A chiller unit was used in conjunction with the calorimeter to attain the lower temperatures.

[4] = AEROSIZER time-of-flight of TBS (Example 8); settings: listed as TBS 2
Procedure: The TBS samples were also analysed using an AEROSIZER™ (Amherst Process Instruments, Amherst, Mass., USA), provided with pulse jet disperser, the AERODISPERSER™, to introduce the powders to the instrument. The measurement range of the AEROSIZER™ is nominally from 0.2 to 200 μm of aerodynamic diameter with the standard 750 μm diameter tapered nozzle. The micronized and SEDS™ TBS samples were analyzed for 300 seconds in triplicate using normal deagglomeration conditions, feed rate (5000 particles per second) and medium shear force (0.5 psi).

[5] = Isothermal microcalorimetry, TAM with RH ramp (Example 8); settings: 25° C., RH ramp 0 to 90% at 3% RH/hr; listed as TBS2
Procedure: A Thermal Activity Monitor (TAM, model 2277; Thermometric A B, Jrflla, Sweden) was used to measure the calorimetric heat flow (μW) vs. % RH profile of each sample. A RH-perfusion cell (Model 2255-120) accessory for the TAM was used to control RH within the sample vessel. The carrier gas, dry N2, was flowed at a constant rate (1.48 cm^3/min). All experiments were performed at 25° C. About 100 to 105 mg accurately weighed of each powder were placed in a stainless steel ampoule, attached to the RH perfusion cell, and then dried under 0% RH until a stable heat flow signal was reached (e.g., a signal within the range of −1 to +1 μW). The RH was then increased in a linear ramp from 0 to 90% over the following 30 hours (i.e., 3% RH/hr). The heat flow arising from interactions of water vapor with the solid sample was measured as a function of time. Since RH changed with time in a linear fashion, the heat flow was also known as a function of RH.
The TAM measures the total heat flow in power, P, produced from either a physical or chemical reaction. In this study, the calorimetric power is proportional to the rate of moisture sorption or desorption, crystallization, and/or other processes. Exothermic events are measured as a deflection in the positive y-axis direction. Although crystallization is an exothermic process, it can be observed as a net endothermic process. During crystallization, there is an exotherm due to crystallization and a simultaneous endotherm due to desorption of previously sorbed moisture. The TAM profile gives the resultant of these processes.

VMD (μm) (laser diffraction) [1]: 3.43 μm
VMD (μm) (Time of flight) [2]: 3.4 μm
Enthalpy of Fusion ([3]; listed as TBS 2): 88.68 J/g
Enthalpy of Fusion ([3]; listed as TBS2): 88.68 J/g
Aerosizer D4, 3 (μm) [4]: 3.44 μm
RH of thermal event in TAM profile [5]: about 85 % RH
SMILES: CC(C)(C)NCC(O)c1cc(O)cc(O)c1 (stereo not drawn) [TSB SEDS, terbutaline sulphate]
